Like-named read-outs stand apart in the source and are kept apart here.
Experiment: Sink condition: solubility of API in DI water and SGF
Format: physicochemical
Settings: for solubility: thermodynamic from solid, read-out: Final Concentration
Experimental: • 1. 5 mg of API was placed into a glass vial. • 2. Added 0.2 mL of diluent (DI water and SGF) into the vial, then sonicate and vortex to dissolve the API. • 3. If the solution is not clear after 5 minutes, add additional 0.2 mL of diluent into the vial, then sonicate and vortex to dissolve the API. • 4. Repeat step 4 till all API is dissolved. • 5. Calculate the final concentration of API and the maximum dissolvable dose used in dissolution test.

## CC(C)c1ccc(N(C)c2ccc3c(c2)OCC[C@H]3CNc2cnccc2C(=O)O)cc1 [Compound 1, 3-({[(4R)-7-{methyl[4-(propan-2-yl)phenyl]amino}-3,4-dihydro-2H-1-benzopyran-4-yl]methyl}amino)pyridine-4-carboxylic acid]
Diluent DI water
  Maximum dissolvable dose used in dissolution test: 717 mg
  solubility: ≥ 4300 µg/mL
Diluent SGF
  Maximum dissolvable dose used in dissolution test: 617 mg
Simulated gastric fluid, diluent SGF
  solubility: ≥ 3700 µg/mL

From patent publication US20250134874A1, “PHARMACEUTICAL FORMULATIONS COMPRISING 3-({[(4R)-7-{METHYL[4-(PROPAN-2-YL)PHENYL]AMINO}-3,4-DIHYDRO-2H-1-BENZOPYRAN-4-YL]METHYL}AMINO)PYRIDINE-4-CARBOXYLIC ACID” (TACHYON THERAPEUTICS, INC., priority 2021, published 2025)
